Test results: patent publication US7285393B2, “Assay for modulation of γ secretase” (Merck Sharp & Dohme Limited, priority 2002, dated 2007)

Experiments:
γ(40)-secretase activity = target: T1, γ(40)-secretase activity (Homo sapiens, UniProt P49768); experiment: Exogenous substrate γ-secretase assay, Aβ(40) generation from C100Flag; format: biochemical; conditions: SH-SY5Y membranes, recombinant C100Flag substrate, 0.5% CHAPSO
T1 construct: utilizing SH-SY5Y membranes as source of γ-secretase enzyme; endogenous in cells; host or cells: human SH-SY5Y neuroblastoma cell membranes (0.5% CHAPSO)
Experimental: (§1) Exogenous substrate γ-secretase assays—For determination of the potencies of Merck A and B, membranes from SH-SY5Y membranes stored in PBS, 5% glycerol were collected by centrifugation for 30 min at 180,000 g. For in vitro generation of Aβ peptides, 80 μg of membranes were incubated with 7.5 μg of recombinant C100Flag (Li et al., 2000a) in 20 mM HEPES, pH 7.3, 2 mM EDTA, 0.1% bovine serum albumin, 0.5% CHAPSO in 100 μl final volume similar to described methods (Li et al., 2000a) in the presence of increasing compound concentrations. Aβ peptides were quantified by an electrochemiluminescence assay in a 96-well plate format [Origen M-Series™ analyzer, Igen] as described (Beher et al., 2001) using 35 μl of the reaction for Aβ(40) and 50 μl for Aβ(42) detection. Non-specific background was defined by the signal obtained when the assay was performed in the presence of 10 μM of Merck A. For determination of γ-secretase activity in the sucrose gradient fractions, 20 μl of each fraction were incubated with 10 μg of recombinant C100Flag and processed further as above.
(§2) FIG. 1. γ-Secretase inhibitors synthesized for this study and their potencies for inhibition of γ(40)- and γ(42)-secretase activities. […] The reduction of Aβ generation was measured relative to Me2SO-treated controls and error bars indicate the standard error the mean from triplicate experiments.

γ(42)-secretase activity = target: T2, γ(42)-secretase activity (Homo sapiens, UniProt P49768); experiment: Exogenous substrate γ-secretase assay, Aβ(42) generation from C100Flag; format: biochemical; conditions: SH-SY5Y membranes, recombinant C100Flag substrate, 0.5% CHAPSO
T2 construct: utilizing SH-SY5Y membranes as source of γ-secretase enzyme; endogenous in cells; host or cells: human SH-SY5Y neuroblastoma cell membranes (0.5% CHAPSO)
Experimental: as §1, §2

[1] = tested on: Aβ42, Aβ38 and Aβ40 production; conditions: cited from earlier work
[2] = target: T3, γ-secretase complex (PS1 heterodimer and nicastrin) (Homo sapiens, UniProt P49768); experiment: Inhibitor affinity precipitation of CHAPSO-solubilized γ-secretase with biotinylated Merck C, Western blot; format: binding; conditions: test compound 200 μM, Merck C 0.1 μM, 2.5 mg beads
T3 construct: mainly occurs as a heterodimer of its N- and C-terminal fragment; endogenous in cells; host or cells: human SH-SY5Y neuroblastoma cell membranes, solubilised in 1% CHAPSO and diluted to 0.5%
Experimental: Western blot analyses—Equal amounts of protein were separated by SDS-polyacrylamide gel electrophoresis and transferred to nitrocellulose membranes. Probing of the membranes was carried out with various antibodies, as indicated in the figures, using the enhanced-chemiluminescence system (ECL, Amersham). Quantitation of bands using a computerized image analysis system (MCID, Imaging Research Inc.) was performed as described previously (Beher et al., 1999).
CHAPSO-solubilization of active γ-secretase and inhibitor affinity precipitations—SH-SY5Y membranes stored in PBS, 5% glycerol were collected by centrifugation for 30 min at 180,000 g. Membrane proteins were solubilized in 1% (w/v) CHAPSO, 50 mM MES-NaOH, pH 6.0, 0.15 M NaCl, 5 mM MgCl2, 1×EDTA-free protease inhibitor mixture (Roche Molecular Biochemicals). Insoluble debris was removed by centrifugation at 180,000 g for 30 min and the resulting supernatant (solubilized γ-secretase) adjusted with the same buffer without CHAPSO to give a final detergent concentration of 0.5% CHAPSO (w/v). Endogenous biotinylated proteins were removed by adding streptavidin-coupled magnetic beads and centrifugation for 2 min at 20,000 g after an incubation for 30 min at 4° C. […]

## CC(C)CC(NC(=O)C(Cc1ccccc1)CC(O)C(Cc1ccccc1)NC(=O)OC(C)(C)C)C(=O)NC(Cc1ccccc1)C(N)=O (stereo not shown) [Merck A]
γ(40)-secretase activity
  IC50 for inhibition of γ(40)-secretase activity (in vitro generation of Aβ(40)): low nanomolar range
γ(42)-secretase activity
  IC50 for inhibition of γ(42)-secretase activity (in vitro generation of Aβ(42)): low nanomolar range

## CC(C)CC(NC(=O)C(Cc1ccccc1)CC(O)C(Cc1ccccc1)NC(=O)OC(C)(C)C)C(=O)NC(Cc1ccccc1)C(=O)NCCCCCNC(=O)CCCCCNC(=O)CCCCCNC(=O)CCCCCN (stereo not shown) [Merck B]
γ(40)-secretase activity
  IC50 for inhibition of γ(40)-secretase activity (in vitro generation of Aβ(40)): low nanomolar range
γ(42)-secretase activity
  IC50 for inhibition of γ(42)-secretase activity (in vitro generation of Aβ(42)): low nanomolar range

## CC(C)Cc1ccc(C(C)C(=O)O)cc1 (stereo not shown) [ibuprofen]
[1]
  Effect on production of Aβ38: increasing
  Effect on production of Aβ40: constant
  Effect on production of Aβ42: inhibit

## COc1ccc2c(c1)c(CC(=O)O)c(C)n2C(=O)c1ccc(Cl)cc1 [indomethacin]
[1]
  Effect on production of Aβ38: increasing
  Effect on production of Aβ40: constant
  Effect on production of Aβ42: inhibit

## CC1=C(CC(=O)O)c2cc(F)ccc2/C1=C\c1ccc(S(C)(=O)=O)cc1 [sulindac sulfone]
[2]
  Effect on capture efficiency for PS1 heterodimer and mature nicastrin by Merck C: comparable to the DMSO (Me2O) control
[1]
  Effect on production of Aβ42: does not lower

## CSc1ccc(/C=C2/C(C)=C(CC(=O)O)c3cc(F)ccc32)cc1 [sulindac sulphide]
[2]
  Effect on capture efficiency for PS1 heterodimer and mature nicastrin by Merck C: enhanced
[1]
  Effect on production of Aβ38: increasing
  Effect on production of Aβ40: constant
  Effect on production of Aβ42: inhibit
